These results are taken from paper PMC8638259 (Biochemistry, 2021).

Values joined by “and” are separate entries in the source; they are usually repeats but may differ in a detail not shown here. Equal entries are not always repeated. “Also recorded” adds a separate entry of the source. Where two headings read alike, the source gives them in different places. Marks after values point to notes of the source that are not given here.

Series [1] deals with T1, human Mat2A (Homo sapiens, UniProt P31153).
T1 construct: His6 (N, cleaved yes); TEV protease cleavage site (N, cleaved yes); made in house; host or cells: E. coli BL21 STAR (DE3)
The series can be described thus: MESG EnzChek coupled phosphate detection assay (assay 1), Mat2A initial rates. Further details: key to type of inhibition (product inhibition) / inhibition pattern (dead-end inhibition): U indicates uncompetitive inhibition; NC indicates noncompetitive inhibition. To be noted: for Km: average of five independent experiments ± SD. Format: biochemical.

In series [2] the target is T1, human Mat2A. The series can be described thus: LC-MS SAM detection assay (assay 2), Mat2A initial rates. Format: biochemical. Also noted: key to type of inhibition (product inhibition by phosphate): U indicates uncompetitive inhibition; NC indicates noncompetitive inhibition. The note with it: pH 7.5, 22 °C; for Km: Mat2A only, single experiment, three replicates ± SE; for Ki: read-out: inhibition constant Kis (product inhibition by phosphate). The text has this:
In all cases, initial velocities were obtained from the linear regions of the reaction progress curves (<200 s, Figures S3C and S5).
The LC–MS assay monitors SAM directly and was developed to confirm the kinetic parameters that were obtained in the phosphate coupled assay and to carry out product inhibition studies by Pi, which was not possible using the phosphate coupled assay. The amount of SAM produced was quantified using a standard curve (Figure S3F). Prior to LC–MS, 1:1 methanol/acetonitrile + 0.1% (v/v) formic acid was added to the samples. LC–MS was performed using an Agilent 1200 LC system fitted with a Cogent Diamond Hydride Type C silica column (2.1 × 150 mm, dead volume 315 μL). Solvent A was LC–MS grade H2O + 0.1% (v/v) formic acid. Solvent B was acetonitrile + 0.1% (v/v) formic acid. The gradient started at 85% B dropping to 5% B over 14 min. Flow rate was 0.4 mL/min. Mass spectrometry was performed using an Agilent Accurate Mass 6230 TOF apparatus in positive-ion mode. The doubly charged SAM ion was detected at an m/z of 200.0759.
Product and dead-end inhibition data showing competitive, noncompetitive, or uncompetitive patterns were fitted to eqs 2–4, respectively. [drawing 2] 2 [drawing 3] 3 [drawing 4] 4 where I is the inhibitor concentration; S is the concentration of the variable substrate; Km is the Michaelis constant for the variable substrate; and Kis and Kii are the slope and intercept inhibition constants, respectively.
Saturation kinetics data were fitted to eq 5. [drawing 5] 5

The target in series [3] is T1, human Mat2A. Description: Isothermal titration calorimetry (ITC) binding to Mat2A. To be noted: for binding to Mat2A (ITC): in the absence of ATP. Here is the method:
Prior to performing ITC, proteins (approximately 1 mL volume) were dialyzed using D-Tube Dialyzers (Maxi 100–3000 μL, MWCO 6–8 kDa) (Novagen) against 1 L of buffer A for 2–4 h at 4 °C with agitation using a magnetic stirring bar. […] Titrations were performed at 20 °C. Protein concentrations were determined by A280 using a UV-2550 spectrophotometer. The protein and ligand concentrations that were used are indicated in the legends of Figures 5 and 6. ITC measurements were performed on a MicroCal PEAQ-ITC calorimeter (Malvern Panalytical). Data were analyzed using the MicroCal PEAQ-ITC analysis software supplied by the manufacturer using nonlinear regression with the One Set of Sites model. For each experiment, the heat produced or consumed associated with ligand dilution was measured and subtracted from the raw data.

The target of series [4] is T2, Mat2A/Mat2B complex (Homo sapiens, UniProt P31153).
T2 construct: His6 (N, cleaved yes); TEV protease cleavage site (N, cleaved yes); made in house; host or cells: E. coli BL21 STAR (DE3)
Description: Coupled phosphate detection assay (assay 1) with the Mat2A/Mat2B complex. The note with it: for Km: Mat2A + Mat2B (250 nM Mat2A, 600 nM Mat2B), pH 7.5, 22 °C. Format: biochemical.

For series [5], the system named is T3, Mat2A.
T3 construct: His6 (N, cleaved yes); TEV protease cleavage site (N, cleaved yes); made in house; host or cells: E. coli BL21 STAR (DE3)
Description: Stability assay: Mat2A activity after preincubation at 37 °C. Format: biochemical, human.

Series [6] has as its target T2, Mat2A/Mat2B complex. Description: Kinetic constants of Mat2A/Mat2B complex after preincubation at 37 °C. Format: biochemical. The note with it: 60 nM Mat2A + 30 nM Mat2B preincubated 15 min at 37 °C; assay at pH 7.5, 22 °C; ATP 1.25 mM; read-out: Km(L-Met).
The test system of series [7] is T3, Mat2A. The note with it: cited from earlier work.
Series [8] deals with Mat2A + Mat2B. Also noted: method as in PMID 28553945. To be noted: after addition of Mat2B, cited from earlier work.
For series [9], the target named is Mat2B (Homo sapiens) (UniProt Q9NZL9). The note with it: cited from earlier work.
[10] abbreviates: saturating Mat2B, ATP varied, saturating L-Met 600 μM.
Setting [11] is: variable substrate ATP, saturating L-Met 0.6 mM.
Where [12] appears, read: variable substrate L-Met, saturating ATP 0.5 or 1 mM.

For the molecule `Nc1ncnc2c1ncn2[C@@H]1O[C@H](COP(=O)(O)OP(=O)(O)OP(=O)(O)O)[C@@H](O)[C@H]1O` [ATP, adenosine 5′-triphosphate], the Ki in series [1] (Mat2A only, dissociation constant of enzyme-ATP complex from eq 1, pH 7.5, 22 °C, read-out: Ki(ATP)) came to 349 ± 66 µM. Also, the Km in [1] (Mat2A only, pH 7.5, 22 °C, read-out: Km(ATP)) is 50 ± 10 µM; in series [2] (read-out: Km(ATP)), 55 ± 10 µM; in series [4] (read-out: Km(ATP)), 50 ± 5 µM. Besides, in series [3], the affinity, expressed as Kd, was 80 ± 30 µM.
Regarding `CSCC[C@H](N)C(=O)O` [L-Met, L-methionine], the Km in series [1] (Mat2A only, pH 7.5, 22 °C, read-out: Km(L-Met)) is 5 ± 2 µM; in [2] (read-out: Km(L-Met)) it was 8 ± 2 µM; in series [4] (read-out: Km(L-Met)) it was 4 ± 1 µM; in [5] (Mat2A only (60 nM) preincubated 15 min at 37 °C, assay at pH 7.5, 22 °C, ATP 1.25 mM, read-out: Km(L-Met)), 3.5 ± 1.3 µM; in series [6] it was 3.9 ± 0.1 µM; in series [7] (without Mat2B, read-out: Km for L-Met), 14 µM. Also, the Km in series [8] (read-out: Km for L-Met) is 2.5 µM. In addition, the “binding to Mat2A (ITC)” value in series [3] (ITC, 20 °C) is given as “No significant change in heat; also recorded: No binding”.
With `NC1(C(=O)O)CCCC1` [L-cLeu, L-cycloleucine, reference compound], the “extent of inhibition of Mat2A” value in series [1] is “fully inhibit”. In addition, the “substrate activity for Mat2A” value in series [1] is on record as “not a substrate”. In series [1] (variable substrate ATP, nonsaturating L-Met = 0.02 mM, pH 7.5, 22 °C), the “inhibition pattern (dead-end inhibition)” value was “U”. Moreover, the Ki in series [1] (variable substrate L-Met, nonsaturating ATP = 0.07 mM, pH 7.5, 22 °C, read-out: inhibition constant Kis (dead-end inhibition)) was found to be 160 µM; in series [1] (variable substrate L-Met, saturating ATP = 1 mM, pH 7.5, 22 °C, read-out: inhibition constant Kis (dead-end inhibition)), 290 µM. Moreover, the “binding to Mat2A (ITC)” value in series [3] (ITC, 20 °C) was “no significant change in heat”; in [3] (ITC, 20 °C, listed as Cycloleucine), “No binding”. Further, the Kd in series [3] (ITC, 20 °C, in the presence of 2 mM ATP) is 25 ± 10 µM.
On to `C[S+](CC[C@H](N)C(=O)[O-])C[C@H]1O[C@@H](n2cnc3c(N)ncnc32)[C@H](O)[C@@H]1O` (stereo partly drawn) [SAM, S-adenosyl-L-methionine], for which the “type of inhibition (product inhibition)” value in [1] (variable substrate ATP, nonsaturating L-Met (0.02 mM), pH 7.5, 22 °C) is “NC ^c”; in [1] (variable substrate ATP, saturating L-Met 0.6 mM, pH 7.5, 22 °C), “U ^b”; in series [1] (variable substrate L-Met, nonsaturating ATP (0.07 mM), pH 7.5, 22 °C), “NC ^c”; in series [1] (variable substrate L-Met, saturating ATP 0.5 or 1 mM, pH 7.5, 22 °C) it was “NC ^b”. The Ki in series [1] (variable substrate ATP, nonsaturating L-Met (0.02 mM), pH 7.5, 22 °C, read-out: inhibition constant Kis (product inhibition)) is 620 µM; in [1] (variable substrate L-Met, nonsaturating ATP (0.07 mM), pH 7.5, 22 °C, read-out: inhibition constant Kis (product inhibition)) it was 250 µM; in series [1] (variable substrate L-Met, saturating ATP 0.5 or 1 mM, pH 7.5, 22 °C, read-out: inhibition constant Kis (product inhibition)), 190 µM. In series [4] (setting [10]), the “Kii(SAM)” value is 130 ± 40 µM. In addition, the “type of inhibition by SAM” value in series [4] (setting [10]) is “uncompetitive”. The “increase in the potency of SAM inhibition in the presence of Mat2B” value in series [4] (versus Mat2A alone) was determined as 1.8 fold. Besides, the IC50 in [7] (without Mat2B, read-out: IC50 of product inhibition by SAM) is approximately 300 µM; in [8] (read-out: IC50 of product inhibition by SAM), approximately 150 µM.
For `O=P(O)(O)O` [phosphate, inorganic phosphate], in [2] (setting [11]), the “inhibition constant Kii (product inhibition by phosphate)” value is reported as “Kii = 5740 ± 760 ^b μM”, the “type of inhibition (product inhibition by phosphate)” value is recorded as “NC ^b” and the Ki was found to be 1290 µM. Moreover, in [2] (setting [12]), the “inhibition constant Kii (product inhibition by phosphate)” value is on record as “Kii = 4970 ± 770 ^b μM”, the “type of inhibition (product inhibition by phosphate)” value is “NC ^b” and the Ki amounted to 1580 µM.
Take Mat1A (from UniProt Q00266): the Kd in series [9] is 3 µM.
For “Mat2A: recombinant full-length human methionine adenosyltransferase Mat2A (UniProt P31153)”, in series [5] (60 nM Mat2A preincubated in assay buffer at 37 °C, no substrates, no Mat2B), the “time to 50% loss of activity” value came to 2.3 min. Besides, the kcat in series [5] (Mat2A only (60 nM) preincubated 15 min at 37 °C, assay at pH 7.5, 22 °C) was 0.09 ± 0.005 ^b s^–1. For the same molecule, the “kcat reported by other groups” value in [7] (different assay methods) is 0.27 s^–1 and 0.35 s^–1.
